Measurements: patent publication US11008344B2, “Tricyclic heteroaryl compounds as STING activators” (Incyte Corporation, priority 2018, dated 2021)

Tested on: IRF3
Test: IRF3 activation assay in THP-1 Dual Cells (QUANTI-Blue reporter)
Format: cell-based
Conditions: Homo sapiens, THP1-Dual, 24 hours incubation, absorbance at 620-655 nm
Method: THP-1 Dual Cells (Invivogen) were maintained in RPMI1640 medium with addition of 10% FBS, 100 μg/mL zeocin, 10 μg/mL blasticidin. Cells were added in a 96-well flat bottom assay plate at 100,000 per well in 100 μL complete RPMI medium. Test compounds were prepared by serial dilution in complete RPMI medium and 100 μL test compounds were transferred to each corresponding well. The assay plate was incubated at 37° C., 5% CO2 for 24 hours. After the overnight incubation, 20 μL of the culture supernatants were collected, followed by addition of 180 μL of QUANTI-Blue (Invivogen) to assess IRF3 activity. The amount of IRF3 activation was assessed by reading the absorbance at 620-655 nm with a microplate reader 2 hours later. The culture supernatant from the untreated THP-1 cells was used as the negative control. To determine the NF-κB activation, another 20 μL of culture supernatant were transferred to a 96-well white plate, followed by addition of 50 μL of Quanti-Luc™ assay solution (Invivogen). The amount of NF-κB activation induced by the test compounds were determined by the luminescence above the untreated control. EC50 determination was performed by fitting the curve of percent control activity versus the log of the compound concentration using the GraphPad Prism 6.0 software.

| Structure (SMILES) | EC50 |
| --- | --- |
| CCn1nc(C)cc1-c1ncc2c3cc(C(N)=O)cc(OC)c3n(C/C=C/Cn3c4nc(-c5cc(C)nn5CC)ncc4c4cc(C(N)=O)cc(OC)c43)c2n1 [Example 1, (E)-9,9′-(but-2-ene-1,4-diyl)bis(2-(1-ethyl-3-methyl-1H-pyrazol-5-yl)-8-methoxy-9H-pyrimido[4,5-b]indole-6-carboxamide)] | ≤ 100 nM |
| CCn1nc(C)cc1-c1ncc2c3cc(C(N)=O)cc(OCCCO)c3n(C/C=C/Cn3c4nc(-c5cc(C)nn5CC)ncc4c4cc(C(N)=O)cc(OCCCO)c43)c2n1 [Example 2, (E)-9,9′-(but-2-ene-1,4-diyl)bis(2-(1-ethyl-3-methyl-1H-pyrazol-5-yl)-8-(3-hydroxypropoxy)-9H-pyrimido[4,5-b]indole-6-carboxamide)] | ≤ 100 nM |
